# Literature values as cited in patent publication US9447074B2, “Compounds” (Glaxo Group Limited, priority 2011, dated 2016).
# Assays:
# [1] = test system: allergic rhinitis; details: phase II
# [2] = test system: allergic rhinitis; details: dosed intranasally, phase I/II
# [3] = test system: B-Cell non-Hodgkin's lymphoma (NHL)
# [4] = test system: B lymphoma (BKS-2); details: murine model of B lymphoma (BKS-2)
compound,measurement,setting,value
Oc1cccc(Nc2ncc(F)c(Nc3cccc(O)c3)n2)c1 [Example R112],efficacy versus placebo,[1],lack of efficacy versus placebo
same,PGD2,[2],statistically significant decrease
same,clinical safety,[2],safe across a range of indicators
"COc1cc(Nc2ncc(F)c(Nc3ccc4c(n3)N(COP(=O)(O)O)C(=O)C(C)(C)O4)n2)cc(OC)c1OC [Example R788, fostamatinib disodium]",therapeutic benefit,[3]; patients with DLBCL and CLL/SLL,therapeutic benefit
same,tolerability,[3]; patients with relapsed or refractory B-Cell NHL,well-tolerated
COc1cc(/C=C/C(=O)CC(=O)/C=C/c2ccc(O)c(OC)c2)ccc1O [curcumin],tumour burden as measured by the total splenocyte number,[4],significant reduction of tumour burden
